Where a name gives a salt, the structure may show the parent alone. Read-outs that look alike come from different tables or passages of the source.
Key:
[1] = Lethal dose in the mouse after acute administration; details: in vivo; for mortality at 72 h: po, read-out: % of toxicity (animals which die)
Protocol: The products were administered by the oral route to batches of 5 female Charles River CDl mice, weighing between 20 and 24 g. They were solubilized in 0.1N HCl.
Toxicity was noted during the 72 hours following administration of the products. The LD50 was calculated for two products.
The results expressed in percentage of animals which die in the […] consecutive to the oral administration of the products are noted in the preceding Table.

[2] = tested on: spontaneous motility of female Charles River CDl mice; experiment: Effect of the products on the spontaneous motility (actimeter test); type: in vivo; details: Mus musculus, po, 0.75 h, 45 min after administration, recorded 10 min, vs controls, * p 0,05, ** p 0,01 (Student test), read-out: Locomotor activity Score (p.cent/controls); for change in vivo at 250 mg/kg: 250 mg/kg p.o.; for change in vivo at 100 mg/kg: 100 mg/kg p.o.
Protocol: The sedative effect is translated by the reduction of the spontaneous motility of the animals. This was measured by the actimeter test developed by BOISSIER and SIMON (1965). The equipment was composed of actimetric cages, of the Apelab type (26×21.5×10 cm), through which pass two light rays which act on a photoelectric cell. The batches were constituted by 12 female Charles River CDl mice weighing between 20 and 24 g. The animals were placed individually in the cages 45 minutes after the oral administration of the products at the dose of 250 mg/kg or at the dose of 100 mg/kg. Each passage through a light beam was counted by an individual meter. The scores corresponding to the movements of the animals were recorded for 10 minutes and compared with the scores made by the batches of control animals, treated solely by the vehicle (0.1N HCl).

[3] = tested on: loss of the turn-around reflex in Charles River CDl mice; experiment: Potentialization of narcosis by pentobarbital; type: in vivo; details: po; mouse; product 60 min before pentobarbital 20 mg/kg i.p.
Protocol: With a view to assessing the hypnogenic power of the products, we have studied their capacity to potentialize the effects of a subnarcotic dose of pentobarbital in the mouse. The batches were constituted by 10 Charles River CDl mice, weighing between 20 and 24 g. The pentobarbital (20 mg/kg, i.p.) was administered 60 minutes after administration of the products. The criterion of sleep-induction retained was the loss of the turn-around reflex.

[4] = tested on: convulsions provoked by bicuculline in Charles River CDl mice; experiment: Antagonism of the convulsions provoked by bicuculline; type: in vivo; details: mouse; oral, 60 min before bicuculline 0.8 mg/kg i.v.; read-out: Median effective dose (ED50) Antagonism of Bicuculline
Protocol: (§1) The anti-epileptic effect of the products in the mouse was assessed on a model of convulsions provoked by an electric shock, and on a model of convulsions induced by a chemical agent: bicuculline.
The batches were constituted by 10 Charles River CDl mice, weighing between 20 and 22 g. The products were administered by the oral route, 60 minutes before the bicuculline (0.8 mg/kg, i.v.). The appearance of tonic convulsions was noted during the 60 minutes following the injection of the bicuculline.

[5] = tested on: convulsions induced by an electric shock in Charles River CDl mice; experiment: Antagonism of the convulsions induced by an electric shock; type: in vivo; details: 1 h; mouse; oral, 60 min before electric shock (12.5 volts, 0.3 seconds); read-out: Median effective dose (ED50) Antagonism of the electric shock
Protocol: as §1
The test was slightly modified from that of SWINYARD et al (1952) and ASAMI et al (1974). The equipment was composed of a Racia shock generator provided with two ocular electrodes delivering a current of 12.5 volts for 0.3 seconds. The batches were constituted by 10 Charles River CDl mice, weighing between 20 and 24 g. The products were administered by the oral route, 60 minutes before the electric shock. The animals presenting no tonic extension of the rear limbs were considered as being protected from the convulsive crisis.

[6] = tested on: spontaneous motility of female Charles River CDl mice; experiment: Effect of the products on the spontaneous motility (actimeter test); type: in vivo; details: Mus musculus, po, 0.75 h; 150 mg/kg p.o.; 45 min after administration, recorded 10 min; vs controls; ** p 0,01 (Student test); read-out: Locomotor activity Score (p.cent/controls)

OCCN(CCO)c1nccc(-c2ccc(Cl)cc2)n1 [SR 41590]
mortality at 72 h ([1]; 250 mg/kg p.o.): 0% | mortality at 72 h ([1]; 500 mg/kg p.o.): 0% | mortality at 72 h ([1]; 1000 mg/kg p.o.): 40%

OC1CCN(c2ncc(Cl)c(-c3ccc(Cl)cc3)n2)CC1 [SR 41556]
change in vivo at 250 mg/kg [2]: -29% | mortality at 72 h ([1]; 250 mg/kg p.o.): 0% | mortality at 72 h ([1]; 500 mg/kg p.o.): 0% | mortality at 72 h ([1]; 1000 mg/kg p.o.): 0%

OC1CCN(c2nccc(-c3ccc(Cl)cc3)n2)CC1 [SR 41554]
change in vivo at 250 mg/kg [2]: -26% | ED50 [3]: 66 mg/kg | ED50 [4]: 147 mg/kg | mortality at 72 h ([1]; 250 mg/kg p.o.): 0% | mortality at 72 h ([1]; 500 mg/kg p.o.): 0% | mortality at 72 h ([1]; 1000 mg/kg p.o.): 0% | ED50 [5]: 145 mg/kg

OC1CCN(c2ccc(-c3cc(Cl)ccc3Cl)nn2)CC1 [SR 41932]
ED50 [4]: 131 mg/kg | mortality at 72 h ([1]; 250 mg/kg p.o.): 0% | mortality at 72 h ([1]; 500 mg/kg p.o.): 0% | mortality at 72 h ([1]; 1000 mg/kg p.o.): 100% | change in vivo at 150 mg/kg [6]: -59% | ED50 [5]: 30 mg/kg

CCCC(=O)OC1CCN(c2ccc(-c3ccccc3Cl)nn2)CC1 [SR 41172, 3-(4-butyroyloxypiperidino)-6-(2-chlorophenyl)-pyridazine]
change in vivo at 100 mg/kg [2]: -32% | ED50 [4]: 39 mg/kg | mortality at 72 h ([1]; 250 mg/kg p.o.): 0% | mortality at 72 h ([1]; 500 mg/kg p.o.): 0% | mortality at 72 h ([1]; 1000 mg/kg p.o.): 100% | ED50 [5]: 28 mg/kg

O=C1CCN(c2ccc(-c3ccccc3Cl)nn2)CC1 [SR 42488, 3-(4-oxo-iperidino)-6-(2-chlorophenyl)pyridazine]
ED50 [3]: 67 mg/kg | ED50 [4]: 35 mg/kg | mortality at 72 h ([1]; 250 mg/kg p.o.): 0% | mortality at 72 h ([1]; 500 mg/kg p.o.): 0% | mortality at 72 h ([1]; 1000 mg/kg p.o.): 0% | ED50 [5]: 40 mg/kg

OCCC1CCN(c2ccc(-c3ccccc3Cl)nn2)CC1 [SR 41261]
change in vivo at 100 mg/kg [2]: -27%

OC1CCN(c2ccc(-c3ccc(Cl)c(Cl)c3)nn2)CC1 [SR 41155]
change in vivo at 100 mg/kg [2]: -82% | ED50 [3]: 20 mg/kg | mortality at 72 h ([1]; 250 mg/kg p.o.): 0% | mortality at 72 h ([1]; 500 mg/kg p.o.): 100% | mortality at 72 h ([1]; 1000 mg/kg p.o.): 100%

OC1CCN(c2ccc(-c3ccccc3Cl)nn2)C1 (stereo not drawn) [SR 41254]
change in vivo at 100 mg/kg [2]: -34% | mortality at 72 h ([1]; 250 mg/kg p.o.): 0% | mortality at 72 h ([1]; 500 mg/kg p.o.): 0% | mortality at 72 h ([1]; 1000 mg/kg p.o.): 20%

OC1CCN(c2ccc(-c3ccccc3Cl)nn2)CC1 [CM 40907, 3-(4-hydroxy-piperidino)-6-(2-chlorophenyl)pyridazine]
change in vivo at 100 mg/kg [2]: -66% | ED50 [3]: 96 mg/kg | ED50 [4]: 38 mg/kg | LD50 at 72 h ([1]; oral, calculated, read-out: LD50 (DL50)): 807 mg/kg | ED50 [5]: 16 mg/kg

COc1ccc(-c2ccc(N3CCC(O)CC3)nn2)cc1 [SR 41185]
change in vivo at 250 mg/kg [2]: -78% | mortality at 72 h ([1]; 250 mg/kg p.o.): 0% | mortality at 72 h ([1]; 500 mg/kg p.o.): 0% | mortality at 72 h ([1]; 1000 mg/kg p.o.): 0%

OC1CCN(c2ccc(-c3ccc(Cl)cc3)nn2)CC1 [CM 41127]
change in vivo at 100 mg/kg [2]: -68% | ED50 [4]: 98 mg/kg | mortality at 72 h ([1]; 250 mg/kg p.o.): 0% | mortality at 72 h ([1]; 500 mg/kg p.o.): 0% | ED50 [5]: 28 mg/kg

Clc1ccccc1-c1ccc(N2CCC3(CC2)OCCO3)nn1 [SR 42487, 3-[1,4-dioxa-8-aza-spiro[4,5]decane-8-yl]-6-(2-chloro-phenyl)pyridazine]
change in vivo at 100 mg/kg [2]: -42% | mortality at 72 h ([1]; 250 mg/kg p.o.): 0% | mortality at 72 h ([1]; 500 mg/kg p.o.): 0% | mortality at 72 h ([1]; 1000 mg/kg p.o.): 0% | ED50 [5]: 57 mg/kg

OC1CCN(c2ncc(Cl)c(-c3ccccc3Cl)n2)CC1 [CM 40858, Hydrobromide of 5-chloro-6-(2-chlorophenyl)-2-(4-hydroxy-piperidino)pyrimidine]
change in vivo at 250 mg/kg [2]: -20% | mortality at 72 h ([1]; 250 mg/kg p.o.): 0% | mortality at 72 h ([1]; 500 mg/kg p.o.): 0% | mortality at 72 h ([1]; 1000 mg/kg p.o.): 0% | ED50 [5]: 49 mg/kg

O=C(OC1CCN(c2ccc(-c3ccccc3Cl)nn2)CC1)C1CC1 [SR 41174]
change in vivo at 100 mg/kg [2]: -15% | ED50 [5]: 92 mg/kg

OCC1CCN(c2ccc(-c3ccccc3Cl)nn2)C1 (stereo not drawn) [SR 41259]
change in vivo at 100 mg/kg [2]: -19%

Oc1ccccc1-c1ccc(N2CCC(O)CC2)nn1 [SR 41559]
change in vivo at 250 mg/kg [2]: -66% | mortality at 72 h ([1]; 250 mg/kg p.o.): 0% | mortality at 72 h ([1]; 500 mg/kg p.o.): 0% | mortality at 72 h ([1]; 1000 mg/kg p.o.): 0%

OCCN(CCO)c1nccc(-c2ccccc2Cl)n1 [SR 41591]
mortality at 72 h ([1]; 250 mg/kg p.o.): 0% | mortality at 72 h ([1]; 500 mg/kg p.o.): 0% | mortality at 72 h ([1]; 1000 mg/kg p.o.): 0%

OC1CCN(c2ccc(-c3cccc(Cl)c3)nn2)CC1 [SR 41188]
change in vivo at 100 mg/kg [2]: -77% | mortality at 72 h ([1]; 250 mg/kg p.o.): 0% | mortality at 72 h ([1]; 500 mg/kg p.o.): 0% | mortality at 72 h ([1]; 1000 mg/kg p.o.): 60% | ED50 [5]: 45 mg/kg

O=[N+]([O-])c1ccccc1-c1ccc(N2CCC(O)CC2)nn1 [SR 41673, 3-(4-hydroxy-piperidino)-6-(2-nitrophenyl)-pyridazine]
change in vivo at 250 mg/kg [2]: -61% | ED50 [4]: 81 mg/kg | mortality at 72 h ([1]; 250 mg/kg p.o.): 0% | mortality at 72 h ([1]; 500 mg/kg p.o.): 0% | mortality at 72 h ([1]; 1000 mg/kg p.o.): 20% | ED50 [5]: 27 mg/kg

OC1CCN(c2ccc(-c3cccc(C(F)(F)F)c3)nn2)CC1 [CM 40857]
change in vivo at 100 mg/kg [2]: -87% | ED50 [5]: 63 mg/kg

OC1CCN(c2ccc(-c3ccccc3)nn2)CC1 [SR 41171]
change in vivo at 100 mg/kg [2]: -34% | ED50 [4]: 83 mg/kg | mortality at 72 h ([1]; 250 mg/kg p.o.): 0% | mortality at 72 h ([1]; 500 mg/kg p.o.): 0% | mortality at 72 h ([1]; 1000 mg/kg p.o.): 100% | ED50 [5]: 86 mg/kg

OC1CCN(c2ccc(-c3ccc(F)cc3)nn2)CC1 [SR 41184]
change in vivo at 100 mg/kg [2]: -91% | mortality at 72 h ([1]; 250 mg/kg p.o.): 0% | mortality at 72 h ([1]; 500 mg/kg p.o.): 60% | mortality at 72 h ([1]; 1000 mg/kg p.o.): 100% | ED50 [5]: 48 mg/kg

OC1CCN(c2ccc(-c3cccc4ccccc34)nn2)CC1 [SR 42399]
mortality at 72 h ([1]; 250 mg/kg p.o.): 0% | mortality at 72 h ([1]; 500 mg/kg p.o.): 0% | ED50 [5]: 38 mg/kg

OC1CCN(c2ccc(-c3ccccc3F)nn2)CC1 [SR 41558]
change in vivo at 250 mg/kg [2]: -93% | ED50 [4]: 30 mg/kg | mortality at 72 h ([1]; 250 mg/kg p.o.): 0% | mortality at 72 h ([1]; 500 mg/kg p.o.): 0% | mortality at 72 h ([1]; 1000 mg/kg p.o.): 80% | ED50 [5]: 115 mg/kg

CNC(=O)OC1CCN(c2ccc(-c3ccccc3Cl)nn2)CC1 [SR 41820, 3-(4-methylcarbamoyloxy-piperidino)-6-(2-chloro-phenyl)pyridazine]
ED50 [4]: 13 mg/kg | ED50 [5]: 10 mg/kg

— patent US4624952A, “Pyridazine and pyrimidine compounds active on the central nervous system as sedatives or anticonvulsants” (Sanofi, priority 1983, dated 1986)
